Data published in US10695314B2, “Antimicrobial composition containing 7,10-epoxyoctadeca-7,9-dienoic acid as active ingredient” (priority 2016, dated 2020).
Converted amounts (≈) assume the structure as drawn. Like-named read-outs stand apart in the source and are kept apart here.

Key:
[1] = test system: MDRSA 01ST001; assay: Agar disk diffusion analysis, zone of inhibition (ZOI); format: cell-based, Staphylococcus aureus; settings: for ZOI without 7.10-EODA / ZOI with 7.10-EODA: strain 001; for ZOI without 7.10-EODA: antibiotic ½×MIC alone; for ZOI with 7.10-EODA: antibiotic ½×MIC with 7,10-EODA ¼×MIC; for antimicrobial activity effect in combination with 7,10-EODA: antibiotic treated in combination with 7,10-EODA, Table 1 summary; for antimicrobial activity, disk diffusion: 100 μg each, FIG. 4
Description: (§1) For synergy effect screening, a 0.1 mL aliquot of MRSA or MSSA strain (5×10^5 CFU/mL) cultured in a log-phase on TSA plates was inoculated. […] A disk including DMSO alone or 7,10-EODA alone (¼×MIC) was used as a control group. The plates were cultured under conditions of […] and 24 hours, and a synergistic effect was observed when the disk periphery including both antibiotic and 7,10-EODA was at least 5 mm in zone of inhibition (ZOI).
Specifically, in order to compare the antimicrobial activity of the 7,10-EODA or the antibiotic of the present invention against the MDRSA 01ST001 strain, the MDRSA 01ST001 strain was treated with the 7,10-EODA (E 100 μg) of the present invention, streptomycin (S, 100 μg), ampicillin (A, 100 μg), oxacillin (O, 100 μg), vancomycin (V, 100 μg), or penicillin (P, 100 μg), according to the method described in Experimental Example 5.
(§2) Specifically, the minimal inhibitory concentration (MIC) was measured according to the method of Experimental Example 4 above, and the degree of inhibition (Agar diffusion analysis) (zone of inhibition; ZOI) was measured according to the method of Experimental Example 5 above.

[2] = test system: Staphylococcus aureus ATCC 29213; assay: as above; format: cell-based; settings: strain 29213; for ZOI without 7.10-EODA: antibiotic ½×MIC alone; for ZOI with 7.10-EODA: antibiotic ½×MIC with 7,10-EODA ¼×MIC
Description: as §1, §2

[3] = test system: MDRSA 01ST001; assay: Minimal inhibitory concentration (MIC), broth microdilution per CLSI
[4] = test system: Staphylococcus aureus ATCC 29213; assay: as above; format: cell-based; settings: strain 29213 (ATCC 29213), antibiotic alone
Description: The minimum inhibitory concentration (MIC) of antibiotics and the activity of 7,10-EODA of the present invention against Staphylococcus aureus strains were measured according to the CLSI guideline (CLSI document M100-517, 2007). Specifically, each antibiotic or 7,10-EODA was diluted 2-fold (200-0.97 μg/mL) by adding MHB (Mueller-Hinton Broth) to a 96-well microtiter plate. In the mid-exponential phase (0.5 OD600), the culture was diluted 10-fold with MHB and 0.1 mL aliquots of the diluent were added to wells containing the serially diluted test reagent and cultured at 37° C. for 12 hours. About the end of the culture period, the cell density was measured at an optical density of 600 nm (OD600) using a […].
as §2

[5] = test system: MRSA 01ST001 (MDRSA 01ST001); assay: Antimicrobial activity on solid medium (clear zone around filter paper); format: cell-based, Staphylococcus aureus; settings: for clear zone on agar plate: 100 μg per filter paper, 37° C., 2 to 3 days, FIG. 1
Description: (§3) First, 1.5% of potato agar was added to the YDP medium, sterilized, and then an agar plate hardened by pouring about 20 ml in a plastic Petri dish was used. MRSA 01ST001 was diluted to about 107/ml, and then about 500 μl was dispersed evenly on the agar plate.
(§4) The size of the clear zone around the filter paper shown after the culture at 37° C. for 2 to 3 days after the inoculation was measured to confirm the degree of antimicrobial activity. At this time, vancomycin 100 μg, oxacillin 100 μg, ampicillin 100 μg, streptomycin 100 μg, and penicillin 100 μg were used as control groups.
(§5) The antimicrobial activity can be confirmed with the degree showing the clear zone on the agar plate. It is judged that the larger the clear zone, the higher the antimicrobial activity. The results are illustrated in FIG. 1 and FIG. 2.
(§6) The results are illustrated in FIG. 3. The experiment was carried out in the same manner as in Example 1-2.

[6] = test system: Staphylococcus aureus ATCC 29213; assay: as above; format: cell-based; settings: FIG. 3
Description: as §3, §4, §5, §6

[7] = Staphylococcus aureus, ATCC29213, read-out: MIC
[8] = strain 001 (MDRSA 01ST001), antibiotic alone

| Compound | ZOI without 7.10-EODA [1] [mm] | ZOI with 7.10-EODA [1] [mm] | ZOI without 7.10-EODA [2] [mm] | ZOI with 7.10-EODA [2] [mm] | MIC ([3]; Staphylococcus aureus) [µg/mL] | MIC [4, 7] [µg/mL] | antimicrobial activity effect in combination with 7,10-EODA [1] | MIC [3, 8] [µg/mL] | MIC [4] [µg/mL] | antimicrobial activity, disk diffusion [1] | clear zone on agar plate [5] | antimicrobial activity on solid medium [6] | antimicrobial activity on solid medium ([5]; MDRSA 01ST001, FIG. 3) | degree of decrease of the MIC90 value of penicillin versus no 7,10-EODA ([3]; 7,10-EODA at 1/16 of its original MIC90) | degree of decrease of the MIC90 value of penicillin versus no 7,10-EODA ([3]; 7,10-EODA at ⅛ of its original MIC90) | MIC90 value of penicillin ([3]; 7,10-EODA not used in combination, OD600) [µg/mL] | MIC90 value of penicillin ([3]; in combination with 7.5 μg/mL 7,10-EODA (1/16 of its MIC90)) [µg/mL] | MIC90 value of penicillin ([3]; in combination with 15.0 μg/mL 7,10-EODA (⅛ of its MIC90)) [µg/mL] |
| --- | --- | --- | --- | --- | --- | --- | --- | --- | --- | --- | --- | --- | --- | --- | --- | --- | --- | --- |
| CC1=C(C(=O)O)N2C(=O)[C@@H](NC(=O)[C@H](N)c3ccccc3)[C@H]2SC1 [CEP, cephalexin] | 10.1 ± 1.3 | 13.1 | 15.3 ± 0.1 | 15.3 | 1000 (≈ 2880 µM) | 1.97 (≈ 5.67 µM) |  |  |  |  |  |  |  |  |  |  |  |  |
| O=C(O)c1cn(C2CC2)c2cc(N3CCNCC3)c(F)cc2c1=O [CIP, ciprofloxacin] | 6.0 ± 0.0 | 13.2 | 9.6 ± 0.2 | 13.2 |  |  | strong antimicrobial activity effect |  |  |  |  |  |  |  |  |  |  |  |
| O=C(N[C@H](CO)[C@H](O)c1ccc([N+](=O)[O-])cc1)C(Cl)Cl [CPL, chloramphenicol] | 13.2 ± 0.4 | 13.9 | 7.4 ± 0.2 | 7.21 | 10 (≈ 30.9 µM) | 10 (≈ 30.9 µM) |  |  |  |  |  |  |  |  |  |  |  |  |
| CN(C)CCCN1c2ccccc2Sc2ccc(Cl)cc21 [CPZ, chlorpromazine] | 7.2 ± 0.1 | 12.0 | 6.0 ± 0.0 | 8.05 | 62.5 (≈ 196 µM) | 125 (≈ 392 µM) |  |  |  |  |  |  |  |  |  |  |  |  |
| Oc1cc(Cl)ccc1Oc1ccc(Cl)cc1Cl [IRG, irgasan] | 12.4 ± 0.3 | 13.8 | 11.1 ± 0.5 | 10.0 |  |  |  | 0.1 (≈ 0.345 µM) | 0.1 (≈ 0.345 µM) |  |  |  |  |  |  |  |  |  |
| CO[C@H]1/C=C/O[C@@]2(C)Oc3c(C)c(O)c4c(O)c(c(/C=N/N5CCN(C)CC5)c(O)c4c3C2=O)NC(=O)/C(C)=C\C=C\[C@H](C)[C@H](O)[C@@H](C)[C@@H](O)[C@@H](C)[C@H](OC(C)=O)[C@@H]1C [RIF, rifampicin] | 18.3 ± 0.2 | 20.2 | 21.0 ± 0.8 |  | 5 (≈ 6.08 µM) | 5 (≈ 6.08 µM) |  |  |  |  |  |  |  |  |  |  |  |  |
| [H]/N=C(/N)N[C@H]1[C@H](O)[C@@H](O)[C@H](O[C@@H]2O[C@@H](C)[C@](O)(C=O)[C@H]2O[C@@H]2O[C@@H](CO)[C@H](O)[C@@H](O)[C@@H]2NC)[C@@H](N/C(N)=N\[H])[C@@H]1O [STP, streptomycin] | 6.0 ± 0.0 | 12.9 | 6.0 ± 0.0 | 11.4 | 62.5 (≈ 107 µM) | 3 (≈ 5.16 µM) | strong antimicrobial activity effect |  |  | resistant | no clear zone appeared |  |  |  |  |  |  |  |
| COc1cc(Cc2cnc(N)nc2N)cc(OC)c1OC [TMP, trimethoprim] | 6.0 ± 0.0 | 6.00 | 8.9 ± 0.1 | 12.3 | 7.8 (≈ 26.9 µM) | 7.8 (≈ 26.9 µM) |  |  |  |  |  |  |  |  |  |  |  |  |
| CN[C@H](CC(C)C)C(=O)N[C@H]1C(=O)N[C@@H](CC(N)=O)C(=O)N[C@H]2C(=O)N[C@H]3C(=O)N[C@H](C(=O)N[C@H](C(=O)O)c4cc(O)cc(O)c4-c4cc3ccc4O)[C@H](O)c3ccc(c(Cl)c3)Oc3cc2cc(c3O[C@@H]2O[C@H](CO)[C@@H](O)[C@H](O)[C@H]2O[C@H]2C[C@](C)(N)[C@H](O)[C@H](C)O2)Oc2ccc(cc2Cl)[C@H]1O [vancomycin] |  |  |  |  |  |  |  |  |  |  | clear zone appeared | same antimicrobial activity | same antimicrobial activity |  |  |  |  |  |
| penicillin | 7.1 ± 0.1 | 13.6 | 12.9 ± 0.4 | 13.2 |  |  | strong antimicrobial activity effect | 1000.0 | 0.5 | resistant | no clear zone appeared |  |  | 1/32 | ¼ | 350 | 87.5 | 10.9 |
